Three molecules from patent US20040086607A1, “Food astringency evaluating method and astringency evaluating apparatus” (SAPPORO BREWERIES LIMITED, priority 2001, published 2004) can be followed below.

Holding throughout (type): binding
Assay [1] has as its system gelatin. Kind of assay: change in frequency with gelatin sensor (quartz oscillator with gelatin immobilized on the electrode). As to conditions: catechin 2 ppm and 6 ppm; for change in frequency: gelatin sensor in distilled water, up to 4 minutes after addition, quercetin and epicatechin 20 μM. How it is done:
First, the gold electrode (diameter: 5 mm) of a sensor equipped with a quartz oscillator (Fragrance Sensor SF-105, product of Sogo Pharmaceutical Co., Ltd.) was immersed in 20 ml of a 1.2 N sodium hydroxide solution for 20 minutes, after which the electrode surface was washed with 500 ml of distilled water and immersed in 1.2 N dilute hydrochloric acid for 2 minutes. The electrode surface was then washed with distilled water and immersed in 12 N concentrated hydrochloric acid for 5 minutes, and the electrode was subsequently washed thoroughly with distilled water and dried at 100° C. for 20 minutes to obtain a quartz oscillator having hydroxyl groups arranged on the electrode surface.
After air-cooling the quartz oscillator, it was immersed in 0.3 ml of a 2% 3-aminopropyltriethoxysilane/acetone solution and allowed to stand at room temperature for 20 hours to introduce amino groups on to the electrode surface. The quartz oscillator was then subjected to ultrasonic washing treatment in 20 ml of acetone and dried at 70° C. for 90 minutes.
Next, 30 μl of 2.5% glutaraldehyde/20 mM phosphate buffer solution (pH 7.0) was placed on the amino group-introduced electrode surface, and the electrode was allowed to stand at room temperature for 2 hours. After then washing the electrode surface in 20 ml of 20 mM phosphate buffer solution and 20 ml of distilled water, it was mounted on an aqueous phase measuring sensor. […]
First, the sensor element measuring section of the gelatin sensor was immersed for 30 seconds in 100 ml of distilled water, and stabilization of frequency was confirmed. Next, 0.1 ml of a catechin/ethanol solution was added to the distilled water, and the change in frequency was measured up to 4 minutes after addition. […]
The change in frequency was also measured in the same manner as above except that quercetin/ethanol solutions and epicatechin/ethanol solutions were used instead of the catechin/ethanol solutions, and the astringency component concentration after addition to the distilled water was adjusted to 20 μM. […]

In assay [2] the test system is mouse proline-rich peptide. Briefly: change in frequency with lipid membrane sensor, complex with mouse proline-rich peptide. As to conditions: FIG. 9. From the text: (§1) The electrode of a sensor equipped with a quartz oscillator (Fragrance Sensor SF-105, product of Sogo Pharmaceutical Co., Ltd.) was coated with a lipid membrane composed of dioctadecylammonium polystyrenesulfonic acid to obtain a lipid membrane sensor.
The obtained astringency evaluating apparatus was used for measurement of the change in frequency corresponding to adsorption on to the lipid membrane by complex between proline-rich peptide and tannic acid.
First, the sensor element measuring section of the lipid membrane sensor was immersed in a 25 mM acetate buffer solution (pH 4.3) dissolving 50, 100 or 150 mg/l of mouse proline-rich peptide (Sawady Technologies), and stabilization of frequency was confirmed. Next, 0.1 ml of tannic acid was added to each mouse proline-rich peptide/acetate buffer solution, and the change in frequency was measured up to 5 minutes after addition. For the measurement, the tannic acid concentration of the buffer solution immediately after tannic acid addition was 8 mg/l.

In assay [3] the test system is gelatin. Kind of assay: change in frequency with lipid membrane sensor, complex with gelatin. On the procedure: as §1
The change in frequency was also measured in the same manner as above except that gelatin (Aldrich Chemical Company, Inc.) or bovine serum albumin (Wako Junyaku Kogyo) was used instead of the mouse proline-rich peptide, and tannic acid (concentration after addition to buffer solution [hereunder referred to simply as “concentration in buffer solution”]: 8 mg/l, and polyphenone 100 (concentration in buffer solution: 50 mg/l) were added. As comparative tests, the same measurement was conducted using sucrose (sweet component, concentration in buffer solution: 1.7 mM), quinine sulfate (bitter component, concentration in buffer solution: 0.27 μM), tartaric acid (acidic component, concentration in buffer solution: 14 μM), NaCl (salty component, concentration in buffer solution: 1.1 mM) and glutamic acid (acidic/savory component, concentration in buffer solution: 30 μM). Also, the change in frequency during 4 minutes after adding different components using bovine serum albumin is shown in FIG. 11. […]

For another assay, the target named is T1, bovine serum albumin (Bos taurus, UniProt P02769).
T1 construct: purchased Wako Junyaku Kogyo
T1 sequence (P02769 25-607): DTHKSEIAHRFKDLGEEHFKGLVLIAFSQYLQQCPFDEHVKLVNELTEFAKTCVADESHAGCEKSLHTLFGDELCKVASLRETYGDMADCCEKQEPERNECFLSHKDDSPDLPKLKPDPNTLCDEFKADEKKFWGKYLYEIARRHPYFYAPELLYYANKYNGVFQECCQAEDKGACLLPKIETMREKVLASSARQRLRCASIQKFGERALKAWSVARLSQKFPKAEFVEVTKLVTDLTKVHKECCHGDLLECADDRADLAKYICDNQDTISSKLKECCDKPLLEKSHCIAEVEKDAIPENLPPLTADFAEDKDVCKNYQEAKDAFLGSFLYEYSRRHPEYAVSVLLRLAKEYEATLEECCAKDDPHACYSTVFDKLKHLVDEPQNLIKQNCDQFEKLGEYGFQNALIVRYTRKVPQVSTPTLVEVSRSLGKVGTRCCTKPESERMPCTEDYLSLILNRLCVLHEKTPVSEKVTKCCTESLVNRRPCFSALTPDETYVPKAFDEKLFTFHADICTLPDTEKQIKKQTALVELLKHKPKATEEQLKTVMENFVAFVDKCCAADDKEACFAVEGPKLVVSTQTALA
Briefly: change in frequency with lipid membrane sensor, complex with bovine serum albumin. As to conditions: bovine serum albumin in acetate buffer, 4 minutes after adding, tannic acid 8 mg/l, polyphenone 100 50 mg/l, FIG. 11. On the procedure:
as §1
The change in frequency was also measured in the same manner as above except that gelatin (Aldrich Chemical Company, Inc.) or bovine serum albumin (Wako Junyaku Kogyo) was used instead of the mouse proline-rich peptide, and tannic acid (concentration after addition to buffer solution [hereunder referred to simply as “concentration in buffer solution”]: 8 mg/l, and polyphenone 100 (concentration in buffer solution: 50 mg/l) were added. As comparative tests, the same measurement was conducted using sucrose (sweet component, concentration in buffer solution: 1.7 mM), quinine sulfate (bitter component, concentration in buffer solution: 0.27 μM), tartaric acid (acidic component, concentration in buffer solution: 14 μM), NaCl (salty component, concentration in buffer solution: 1.1 mM) and glutamic acid (acidic/savory component, concentration in buffer solution: 30 μM). Also, the change in frequency during 4 minutes after adding different components using bovine serum albumin is shown in FIG. 11.

For the molecule `O=c1c(O)c(-c2ccc(O)c(O)c2)oc2cc(O)cc(O)c12` [quercetin], in the assay on gelatin [1], the change in frequency entry was “notable change in frequency”.

`O=C(OC[C@H]1O[C@@H](OC(=O)c2cc(O)c(O)c(OC(=O)c3cc(O)c(O)c(O)c3)c2)[C@H](OC(=O)c2cc(O)c(O)c(OC(=O)c3cc(O)c(O)c(O)c3)c2)[C@@H](OC(=O)c2cc(O)c(O)c(OC(=O)c3cc(O)c(O)c(O)c3)c2)[C@@H]1OC(=O)c1cc(O)c(O)c(OC(=O)c2cc(O)c(O)c(O)c2)c1)c1cc(O)c(O)c(OC(=O)c2cc(O)c(O)c(O)c2)c1` [tannic acid]: the change in frequency entry in assay [2] (25 mM acetate buffer pH 4.3, mouse proline-rich peptide 50, 100 or 150 mg/l, tannic acid 8 mg/l, up to 5 minutes) was “notable change in frequency”; in the assay on gelatin [3] (gelatin in acetate buffer, 4 minutes after adding, tannic acid 8 mg/l, polyphenone 100 50 mg/l, FIG. 10), “notable change in frequency”; on bovine serum albumin, “notable change in frequency”. Also, the “change in frequency versus concentration” value in assay [2] (mouse proline-rich peptide) is given as “greater with increasing tannic acid concentration”. Moreover, the “correlation between tannic acid concentration and change in frequency” value with gelatin [3] (10 mg/l gelatin/25 mM acetate buffer solution, FIG. 12) is recorded as “adequately satisfactory correlation”.

catechin: in the assay on gelatin [1], the change in frequency entry is “notable change in frequency”. Moreover, the “change in frequency versus catechin concentration” value with gelatin [1] (gelatin sensor, FIG. 5) was “greater with increasing catechin concentration”.
